Data as given in patent publication US20080139545A1, “FORMULATION TO TREAT EAR INFECTION” (priority 2006, published 2008).
“Also recorded” adds a separate entry of the source. Read-outs that look alike come from different tables or passages of the source.

Tests used:
Klebsiella pneumoniae = conditions: concentrations of 0.003% to 0.8%; cited from earlier work
Bacillus species = conditions: concentrations of 0.003% to 0.8%; cited from earlier work
Moraxella catarrhalis = conditions: concentrations of 0.003% to 0.8%; cited from earlier work
[1] = topical NAC, rat model of otitis media; cited from earlier work
[2] = system: cochlear outer hair cell (OHC); conditions: multiple studies; cited from earlier work
[3] = system: Staphylococcus epidermidis; conditions: concentrations of 0.003% to 0.8%; cited from earlier work
[4] = topical NAC, rabbit model of otitis media; cited from earlier work
polymicrobial cultures = conditions: concentrations of 0.003% to 0.8%; cited from earlier work
Haemophilus influenzae = conditions: concentrations of 0.003% to 0.8%; cited from earlier work
[5] = system: cochlear outer hair cell (OHC); conditions: co-administration with NAC at 0.017%; cited from earlier work
[6] = NAC at a concentration of 0.1%; cited from earlier work
[7] = administered via transtympanic iontopheresis; cited from earlier work
Streptococcus pneumoniae = conditions: concentrations of 0.003% to 0.8%; cited from earlier work
Pseudomonas cultures = conditions: cited from earlier work
Escherichia coli = conditions: concentrations of 0.003% to 0.8%; cited from earlier work
[8] = high first pass metabolism through the liver; cited from earlier work
[9] = applied topically to children at a concentration of 2%; cited from earlier work
[10] = conventional treatments of the same patients before NAC (case histories); type: in vivo, human
Source text: They developed vertigo and bilateral otalgia in 1997, and presented to our practice. Given their prior history, they underwent an extensive workup from the outset. […] They underwent right-sided T tube placement for chronic Eustachian tube dysfunction in October 1997, with marked improvement of their pressure and fullness. However, they developed intermittent otorrhea, for which they received topical Tobradex. In November, the tube plugged completely, and they underwent tube replacement. Findings were notable for thick mucus filling the middle ear space. […] They underwent a right sided mastoidectomy with tube exchange in December 1997, with intraoperative findings notable for an inflamed mastoid cavity with several areas of cholesterol granuloma, as well as complete aditus blockade.
They continued to have thick, “taupe”-colored otorrhea after surgery. Considering their failure to respond to therapy, the differential was widened. Their evaluations for immunodeficiency and autoimmune pathology were negative. They underwent multiple TT placements and exchanges, as well as a negative culture and a wide laser tympanotomy in June 1998. The tympanotomy afforded them a brief hiatus from drainage from July through August. […] They also required office debridements every week or alternate week until they underwent a revision tympanomastoidectomy in October 1998. Intraoperative findings were notable for a clear mastoid, but a middle ear full of thick mucopurulence and edematous mucosa. The KTP laser was used to widen the tympanotomy and to ablate the middle ear mucosa to the Eustachian tube. Intraoperative cultures returned negative. Their course improved considerably, with only mild intermittent infections through July 1999. However, they were then diagnosed with breast cancer, which was treated with a modified radical mastectomy and adjuvant chemoradiation.
As they were completing their chemotherapy, they redeveloped the same otorrhea, which was treated with continuous, suppressive Floxin drops as well as frequent office debridements. They developed a mastoid abscess in March 2000, for which they underwent a repeat revision mastoidectomy. Preoperative CT imaging raised the concern for osteomyelitis. Intraoperative findings were notable for purulence in the mastoid and subcutaneous tissues, which were debrided widely. Intraoperative cultures returned penicillin-resistant, but otherwise pan-sensitive Staphylococcus aureus. Their otorrhea resumed in April after a brief hiatus. […] They continued to require office debridements on alternate weeks.
They had brief episodes of otorrhea in November 2001, and February and May 2002, which were treated easily with ototopicals.
Their otorrhea restarted in February 2003. They were begun on alternating courses of topical ciprofloxacin and Tobradex, oral azithromycin and metronidazole, as well as office debridements every week or alternating week. […] An infectious disease consultation was obtained, and they were started on high dose Septra per recommendations. […] A followup culture in October was negative.
Given their continued otorrhea, they underwent a revision modified radical tympanomastoidectomy in November 2004, with intraoperative findings notable for a large cholesterol granuloma extending from the mastoid tip to the retrosigmoid region towards the occiput. They had frank purulence in the epi-, pro-, and hypotympanum. The middle ear was packed with Zyvox-soaked Gelfoam. […] After a brief respite, their otorrhea restarted the following month. […] Multiple cultures returned negative except for occasional colonies of Candida albicans.
patient four is a diabetic with a history of frequent ear infections as a child. They developed ear plugging in May 2004, and was treated with oral antibiotics for otitis media. […] However, they developed chronic otorrhea after tube placement, which persisted despite multiple courses of oral and topical antibiotics. The TT was removed in September, after which they developed a chronic serous effusion. […]

[11] = as above; type: in vivo, human; conditions: for response of effusion, tube plugging and otorrhea to conventional treatment: patient one (Example 4), 2002-2005, topical or oral
[12] = off-label treatment of patients with Ciprodex augmented with 2% NAC (case reports); type: in vivo, human; conditions: patient two (Example 1), oral, for presumed fungal superinfection
Source text: These patients responded uniformly to the compositions of the present invention. All treated ears ceased to drain within 1-2 weeks of adequate treatment. No ototoxicity was documented by either patient report or audiometry.
Given their multiple treatment failures, they were started at this point on Ciprodex augmented with 2% NAC. Verbal informed consent was obtained prior to starting treatment, and they were continued on oral Zyvox. […] They were given a fresh mixture of NAC with Ciprodex, and their otorrhea and middle ear fluid resolved one week later. […] They have been refrigerating the medication between uses, and hand warming the solution before application.
In November 2005, SG underwent a two week course of topical Ciprodex augmented with 2% NAC. Verbal informed consent was obtained prior to starting treatment.
At this point, BT was started on a two week course of topical Ciprodex augmented with 2% NAC. Verbal informed consent was obtained prior to starting treatment.
In November 2005, DL was started on a two week course of topical Ciprodex augmented with 2% NAC. Verbal informed consent was obtained prior to starting treatment. […] The same solution was insufflated into the ear after an aggressive debridement, and they were started on another two week course. The patient traveled abroad for one month, and returned in January 2006. […]

[13] = patient two (Example 1), 1997-2005, topical or oral as stated

## CC(=O)N[C@@H](CS)C(=O)O [NAC, N-acetylcysteine]
Klebsiella pneumoniae
  adherence of Klebsiella pneumoniae to polystyrene: reduces the adherence
Bacillus species
  adherence of Bacillus species to stainless steel: reduces the adherence
Moraxella catarrhalis
  adherence of Moraxella catarrhalis to human pharyngeal cells: reduces the adherence
[1]
  fibroblast proliferation, collagen synthesis, and inflammatory markers: Marked reductions
  tympanic membrane scarring: effectively reduced this scarring
[2]
  protection against oxidative OHC damage from cisplatin or aminoglycosides: protect against oxidative OHC damage
[3]
  adherence of Staphylococcus epidermidis to polystyrene: reduces the adherence
[4]
  fibroblast proliferation, collagen synthesis, and inflammatory markers: Marked reductions
  tympanic membrane scarring: effectively reduced this scarring
Polymicrobial cultures
  adherence of polymicrobial cultures to stainless steel and tracheoesophageal puncture prostheses: reduces the adherence
Haemophilus influenzae
  adherence of Haemophilus influenzae to mucus and human oropharyngeal cells: reduces the adherence
[5]
  hydrogen peroxide-mediated damage to OHCs: completely prevented
[6]
  viscosity reductions: 21-39%
[7]
  clearance of thick middle ear effusions: may speed the clearance
Streptococcus pneumoniae
  adherence of Streptococcus pneumoniae to human oropharyngeal cells: reduces the adherence
Pseudomonas cultures; NAC administered alone, concentration of only 0.002%
  killing of Pseudomonas cultures: 95%
Pseudomonas cultures; combination with aminoglycoside antibiotics
  decrease of the efficacy of aminoglycoside antibiotics: 2-16 fold
Pseudomonas cultures; combination with ticarcillin and carbenicillin
  interaction with ticarcillin and carbenicillin: strong synergy
Escherichia coli
  adherence of Escherichia coli to polystyrene: reduces the adherence
[8]
  oral bioavailability: 5-10%
[9]
  TT reinsertion, recurrence of otitis media, need for physician visits: decreases
  tympanostomy tube (TT) longevity: increases

## Cc1ncc([N+](=O)[O-])n1CCO [Flagyl, 2-Methyl-5-nitro-imidazole-1-ethanol]
[10]; patient four (Example 2), 2004-2005, topical or oral as stated
  response of otorrhea to conventional treatment: otorrhea persisted
[10]; [13]
  response of otorrhea to conventional treatment: symptoms continued essentially unabated

## CC[C@H]1OC(=O)[C@H](C)[C@@H](O[C@H]2C[C@@](C)(OC)[C@@H](O)[C@H](C)O2)[C@H](C)[C@@H](O[C@@H]2O[C@H](C)C[C@H](N(C)C)[C@H]2O)[C@](C)(OC)C[C@@H](C)C(=O)[C@H](C)[C@@H](O)[C@]1(C)O [Biaxin, 6-O-methylerythromycin]
[10]; [13]
  response of otorrhea to conventional treatment: failed to respond

## CC[C@H]1OC(=O)[C@H](C)[C@@H](O[C@H]2C[C@@](C)(OC)[C@@H](O)[C@H](C)O2)[C@H](C)[C@@H](O[C@@H]2O[C@H](C)C[C@H](N(C)C)[C@H]2O)[C@](C)(O)C[C@@H](C)CN(C)[C@H](C)[C@@H](O)[C@]1(C)O [azithromycin]
[10]; [13]
  response of otorrhea to conventional treatment: symptoms continued essentially unabated
[11]
  response of effusion, tube plugging and otorrhea to conventional treatment: effusion and plugging continued; also recorded: continued essentially unchanged

## O=C(O)c1cn(C2CC2)c2cc(N3CCNCC3)c(F)cc2c1=O [ciprofloxacin drops, 1-cyclopropyl-6-fluoro-1,4-dihydro-4-oxo-7-(1-piperazinyl)-3-quinolinecarboxylic acid]
[10]; [13]
  response of otorrhea to conventional treatment: continued to drain through December; also recorded: failed to respond; also recorded: otorrhea resolved
[10]; patient two (Example 1), 1997-2005, topical or oral as stated, listed as ciprofloxacin
  response of otorrhea to conventional treatment: symptoms continued essentially unabated
[11]
  response of effusion, tube plugging and otorrhea to conventional treatment: effusion and plugging continued; also recorded: tube plugging and otorrhea continued
[11]; patient three (Example 3), 2005, topical or oral as stated
  response of otorrhea/effusion to conventional treatment: developed recurrent otorrhea on the right side

## O=C(N[C@H](CO)[C@H](O)c1ccc([N+](=O)[O-])cc1)C(Cl)Cl [chloramphenicol]
[10]; [13]
  response of otorrhea to conventional treatment: failed to respond

## CC1COc2c(N3CCN(C)CC3)c(F)cc3c(=O)c(C(=O)O)cn1c23 (racemic) [Floxin, (±)-9-fluoro-2,3-dihydro-3-methyl-10-(4-methyl-1-piperazinyl)-7-oxo-7H-pyrido[1,3,3-de]-1,4-benzoxazine-6-carboxylic acid]
[11]
  response of effusion, tube plugging and otorrhea to conventional treatment: continued essentially unchanged

## CN[C@H](CC(C)C)C(=O)N[C@H]1C(=O)N[C@@H](CC(N)=O)C(=O)N[C@H]2C(=O)N[C@H]3C(=O)N[C@H](C(=O)N[C@H](C(=O)O)c4cc(O)cc(O)c4-c4cc3ccc4O)[C@H](O)c3ccc(c(Cl)c3)Oc3cc2cc(c3O[C@@H]2O[C@H](CO)[C@@H](O)[C@H](O)[C@H]2O[C@H]2C[C@](C)(N)[C@H](O)[C@H](C)O2)Oc2ccc(cc2Cl)[C@H]1O [vancomycin]
[10]; [13]
  response of otorrhea to conventional treatment: some improvement

## CN[C@@H](C)[C@@H](O)c1ccccc1 [Sudafed]
[11]
  response of effusion, tube plugging and otorrhea to conventional treatment: effusion and plugging continued

## CN(C/C=C/C#CC(C)(C)C)Cc1cccc2ccccc12.Cl [Lamisil, (E)-N-(6,6-dimethyl-2-hepten-4-ynyl)-N-methyl-1-naphthalenemethanamine hydrochloride]
[12]
  tolerability: could tolerate only three days of treatment secondary to gastrointestinal side effects
